Data set [1] in a line: solubility in simulated lung fluid. In kind it is physicochemical.
The nature of data set [2]: hygroscopicity. It is filed as physicochemical.

For the compound `CC(C)N1CCN(Cc2cnc(-c3cc(-c4cccc5[nH]ccc45)cc4[nH]ncc34)o2)CC1.O=C(O)c1ccccc1` [benzoate salt of Compound A, 2-(6-(1H-Indol-4-yl)-1H-indazol-4-yl)-5-((4-isopropylpiperazin-1-yl)methyl)oxazole benzoate], the “solubility in simulated lung fluid” value in data set [1] is “suitable”. Moreover, in data set [2], the hygroscopicity result was “suitable”.

Source of the values: patent US10266525B2, “Processes for preparing 2-(6-(1H-indol-4-yl)-1H-indazol-4-yl)-5-((4-isopropylpiperazin-1-yl)methyl)oxazole” (GlaxoSmithKline Intellectual Property Development Limited, priority 2015, dated 2019).
